Laboratory results from patent US20250281462A1, “THERAPEUTICALLY EFFECTIVE ORAL ADMINISTRATION OF A 2 ARYLBENZIMIDAZOLE” (Tranquis Therapeutics, Inc., priority 2021, published 2025).
“Also recorded” adds a separate entry of the source. Like-named read-outs stand apart in the source and are kept apart here. Each block holds one compound with its values, some of them ahead of it.

Experiments:
[1] = test system: TNFα; assay: LPS-stimulated TNFα secretion from human PBMCs (ELISA); format: cell-based; conditions: LPS 1 ng/mL, 24 h
Experimental: The principal metabolites from liver metabolism of TQS-168 following oral administration have been described. See Sun et al., Rapid Commun. Mass Spectrom. 32:480-488 (2018), incorporated herein by reference. We synthesized the phase 1 metabolites from liver metabolism of TQS-168 illustrated in FIG. 20 and tested them for the ability to inhibit LPS-stimulated secretion of pro-inflammatory cytokines in vitro.
Briefly, 20,000 human PBMC were aliquoted into each well. LPS was added at 1 ng/mL and the cells incubated for 24 h in the presence of LPS and TQS-168 or one of its metabolites. Readouts were human IL-6 ELISA and human TNFα ELISA. For assay, supernatants were diluted in culture medium. The supernatant dilution for the IL-6 ELISA was 1:8, and the 1:2 for the human TNFα ELISA.

[2] = human, in vivo
[3] = test system: TNFα; assay: LPS-induced TNFα secretion from BV2 cells (CBA assay); format: cell-based, murine; conditions: for suppression of TNFα production vs control: 100 ng/mL LPS 24 hours
Experimental: Lipopolysaccharide (LPS) is a natural ligand of the TLR4/CD14 complex, which is highly expressed on myeloid cells
LPS was used to induce cytokine secretion from BV-2 cells. Cells were incubated with TQS-168 at various concentrations to assess whether TQS-168 could suppress the LPS-promoted release of various cytokines from in vitro cell cultures. Cytokine secretion was measured by cytometric bead array (CBA) fluorescence-activated cell sorting (FACS).
Briefly, a vial of BV2 frozen stock (1 million cells per ml in complete medium) was thawed into 10 mL of complete medium per vial for a total of 4 vials. The vials were then centrifuged at 1800 rpm for 3 minutes to wash away freezing media. The four vials were then pooled into 25 mL of complete medium. TQS-168 was prepared in DMSO.
Cells were incubated for 24 hours in the presence of medium (negative control), LPS (positive control), DMSO+LPS (positive control, controlling additionally for presence of DMSO in the TQS-168 stock solution), or LPS+TQS-168 at final concentrations of 1 μM, 5 μM, 10 μM, and 20 μM.
After the well plates were incubated overnight for 24 hours, they were centrifuged at 1800 rpm for 5 minutes. Next, 150 μl from each well was transferred to a new set of plates, of which 50 μl was used for CBA. The plates were then centrifuged with the cells, followed by addition of 100 μL of DAPI (50 ml of PBS+10 μL of DAPI stock at 1:5000 dilution). The plates were then incubated in the dark for 5 minutes, followed by addition of 100 μL of PBS and centrifuged at 1800 rpm for 5 minutes. Finally, the plates were resuspended in 200 μL of PBS and tested.
Multiplexed cytometric bead array (CBA) assay was performed according to standard techniques to detect presence in the cell culture medium of secreted murine TNFα, IL-6, IFNγ, IL-12, monocyte chemoattractant protein 1 (MCP-1), and IL-10.
A total of 4-11 replicates of BV2 cultures in different conditions were investigated. […]

[4] = Plasma concentrations after single intravenous dose in mice; format: in vivo; conditions: male, CD-1, mouse, 0.5 mg/kg intravenous, read-out: Terminal elimination half life (converted)
Experimental: Three male 7-9 week old male CD-1 mice from Lingchang were treated intravenously with 0.5 mg/kg of TQS-168. TQS-168 was prepared in solution of 31.6% DMAC+36.8% Ethanol+31.6% Propylene glycol. Blood was collected at 0.5, 3, 10, 30, 60, 120, 240, 480 and 720 minutes after a single dose of TQS-168 and then processed. Blood samples were collected via saphenous vein puncture into a K2EDTA tube, centrifuged at 4° C. at 4600 rpm for 5 minutes and plasma collected and stored at less than −20° C. prior to being analyzed by LC-MS for TQS-168 concentrations. Data are presented as concentration and mean concentration of TQS-168 per volume of plasma (ng/mL), as shown in FIG. 10 (individual mice) and FIG. 11 (average), respectively.

MPR AUC(0-inf) ([2]; po, 60 mg): 5.63
MPR Cmax ([2]; po, 60 mg): 2.44
MPR AUC(0-inf) ([2]; po, 90 mg): 6.16
MPR Cmax ([2]; po, 90 mg): 1.93
MPR AUC(0-inf) ([2]; po, 270 mg): 5.92
MPR Cmax ([2]; po, 270 mg): 2.62
MPR AUC(0-inf) ([2]; po, 540 mg): 7.91
MPR Cmax ([2]; po, 540 mg): 3.43
Frel AUC(0-inf) ([2]; male, 180 mg): 63.6%
Frel AUC(0-last) ([2]; male, 180 mg): 63.5%
Frel Cmax ([2]; male, 180 mg): 64.9%
AUC(0-24) ([2]; male, po, 60 mg): 383 ng·h/mL
AUC(0-inf) ([2]; male, po, 60 mg): 410 ng·h/mL
Cmax ([2]; male, po, 60 mg): 65.3 ng/mL
T1/2 ([2]; male, po, 60 mg): 4.89 h
Tmax ([2]; male, po, 60 mg): 2.50 h
AUC(0-24) ([2]; male, po, 90 mg): 1170 ng·h/mL
AUC(0-inf) ([2]; male, po, 90 mg): 1200 ng·h/mL
AUC(0-last) ([2]; male, po, 90 mg): 1190 ng·h/mL
Cmax ([2]; male, po, 90 mg): 214 ng/mL
T1/2 ([2]; male, po, 90 mg): 4.79 h
Tmax ([2]; male, po, 90 mg): 1.25 h
AUC(0-24) ([2]; male, po, 270 mg): 4250 ng·h/mL
AUC(0-inf) ([2]; male, po, 270 mg): 4950 ng·h/mL
Cmax ([2]; male, po, 270 mg): 621 ng/mL
T1/2 ([2]; male, po, 270 mg): 10.4 h
Tmax ([2]; male, po, 270 mg): 2.00 h
AUC(0-24) ([2]; male, po, 540 mg): 10800 ng·h/mL
AUC(0-inf) ([2]; male, po, 540 mg): 12700 ng·h/mL
Cmax ([2]; male, po, 540 mg): 1110 ng/mL
T1/2 ([2]; male, po, 540 mg): 11.3 h
Tmax ([2]; male, po, 540 mg): 4.00 h
SMILES: CC(C)(C)c1ccc(-c2nc3cc(O)ccc3[nH]2)cc1 [TQS-621]
inhibition of LPS-stimulated TNFα secretion [1]: potently inhibits; also recorded: potent inhibitor

SMILES: CC(C)(C)c1ccc(-c2nc3ccccc3[nH]2)cc1 [TQS-168, 2-(4-tert-butylphenyl)-1H-benzimidazole]
suppression of TNFα production vs control ([3]; 5 μM): can suppress TNFα production; also recorded: inhibition of TNFα production
suppression of TNFα production vs control ([3]; 20 μM): can suppress TNFα production; also recorded: inhibition of TNFα production
reduction of LPS-induced TNFα secretion, dose response ([3]; 1-20 μM): concentration-dependent; also recorded: dose-responsive inhibition
half-life [4]: 8.4 min
